Series [1] can be described thus: Solubility of compound (I) tosylate in various dissolution media with time. It counts as physicochemical. Particulars: thermodynamic from solid, 37° C. From the text: Therefore compound (I) tosylate is expected to improve the aqueous solubility of compound (I) for a sufficient period of time to allow enhanced absorption in man. Without wishing to be limited by theory, the enhanced solubility of compound (I) tosylate may arise from a combination of the inherent higher solubility of the compound (I) tosylate, and a continued high solubility when the compound (I) precipitates from solution as amorphous material, in aqueous media. The observed improved solubility may therefore reflect both the solubility of the amorphous material and the solubility of the compound (I) tosylate, which will be present in-vivo in varying ratios following oral administration of compound (I) tosylate as a result of the kinetic balance between dissolution and precipitation of compound (I). […] In Table 2, the columns marked “modification” refer to the form of the solid present in the dissolution medium at the relevant time point indicated. The data in Table 2 indicate that the solubility remains high for at least 3 hours, particularly at low pH, representative of the pH found in the stomach.
Solubility was determined in 0.1 M HCl at pH 1.0, 0.2 M phosphate buffer at pH 3, 0.2 M phosphate buffer at pH 5.0, 0.2 M phosphate buffer at pH 6.5 and 0.2 M phosphate buffer at pH 8.
Typically about 4 mg of test sample was added to a 1 ml Scantec glass tube. The experiment was started on addition of 800 μl of preheated test media using an automated Tecon robot system (Genesis Freedom 150). Incubation was at 37° C., in a thermoblock, shaken at 600 rpm. Samples were withdrawn after 1 hour, 3 hours and 24 h, triplicate samples for each media. The supernatant liquid was withdrawn from samples and filtered using a Whatman GF/B filter and diluted prior to analysis by LC (Agilent 1100 series with X Terra MSC18 column). The remaining solid in the sample tubes was characterised using XRPD.

Series [2] in a line: Humidity sorption by gravimetrical vapour sorption (GVS). It counts as physicochemical. Particulars: at 80% relative humidity (RH). The procedure: As such, compound (I) tosylate Form A is right at the border between slightly hygroscopic and non hygroscopic, according to the criteria defined in the European Pharmacopoeia.
The gravimetric responses of test samples to changes in humidity were investigated using a SGA 100 (VTI Corporation) Gravimetrical Vapour Sorption (GVS) instrument with the following features:
Dry to 90% RH and back, in steps of, for example, 10% RH.
Equilibrium condition: <0.01 weight-% per 10 minutes (<0.001 weight-%/min)
Approximately 5 mg of the test sample was placed in the cup and evaluated.

The nature of series [3]: Solid state stability study (LC and XRPD). It counts as physicochemical. The procedure:
The solid state stability of compound (I) tosylate Form A was studied under four sets of conditions: at 25° C./desiccated; at 25° C./60% relative humidity (RH); 40° C./75% RH and 60° C./75% RH. Samples were examined (LC and XRPD) after 4, 8 and 12 weeks and chemical and physical stability were evaluated. […] It was concluded that compound (I) tosylate Form A has excellent and advantageous chemical and physical stability in the solid state under pharmaceutically relevant storage conditions.

Series [4] can be described thus: Oral bioavailability study in the dog. Particulars: Beagle, plasma. It counts as in vivo, Beagle dogs. The procedure: Beagle dogs (three dogs for each formulation) were administered orally with Compound (I) tosylate form A (dose equivalent to 1.0 mg/kg compound (I) free base) in a gelatine capsule or an aqueous suspension of 0.8 mg/kg crystalline compound (I) free base suspended in water together with 1.2% w/w Avicel and 0.1% w/w Polysorbate 80.
Accordingly the bioavailability of compound (I) tosylate Form A was about 3 times higher than the free base.

Series [5] in a line: Dissolution in 900 ml of 0.1 M HCl (pH 1), USP apparatus 2. It counts as physicochemical. To be noted: 79 mg (corresponding to 60 mg free base) alone in a capsule; 900 ml 0.1 M HCl, 75 rpm, 37° C. The method, then: […] The dissolution was measured in 900 ml of 0.1 M HCl (pH 1) and using a USP dissolution apparatus 2 (paddle) at 75 rpm and 37° C. in a fully automated system, Zymark Multidose G3.
The dissolution profile of tablet formulations A and B in Table 7 were determined in 900 ml of 0.1 M HCl (pH 1) and using a USP dissolution apparatus 2 (paddle) at 75 rpm and 37° C. in a fully automated system, Zymark Multidose G3.

Series [6] in a line: Solubility of salts of compound (I) after 1 hour in 0.1 M HCl (Zymark Multidose G3, UV 337 nm). To be noted: after 1 hour in 900 ml of 0.1 M HCl, 75 rpm, 37° C.
Protocol: The solubility (mg/ml) shown in Table 1 was measured after 1 hour in 900 ml of 0.1 M HCl and at 75 rpm and 37° C. using a Zymark Multidose G3 system. Analysis was made by UV spectrophotometer with a detection wavelength of 337 nm.
Series [7] addresses T1, Human Neutrophil Elastase (HNE) (Homo sapiens, UniProt P08246).
T1 construct: Human Neutrophil Elastase (HNE) purified from serum (Calbiochem art. 324681); purchased Calbiochem 324681; host or cells: purified from serum (so in the source); natural human source, not recombinant
T1 sequence (P08246 30-247 limits assumed): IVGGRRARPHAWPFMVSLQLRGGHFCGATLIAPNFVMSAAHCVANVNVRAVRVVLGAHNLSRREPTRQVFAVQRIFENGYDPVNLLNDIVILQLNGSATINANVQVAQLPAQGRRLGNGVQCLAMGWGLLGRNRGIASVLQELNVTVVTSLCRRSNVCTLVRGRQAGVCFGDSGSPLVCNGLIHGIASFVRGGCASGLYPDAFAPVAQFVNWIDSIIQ
Briefly: Human Neutrophil Elastase Quenched-FRET assay. It counts as biochemical. To be noted: free base dissolved in DMSO; n=26; read-out: IC50 for inhibition of human neutrophil elastase activity. The procedure:
The assay uses Human Neutrophil Elastase (HNE) purified from serum (Calbiochem art. 324681; Ref. Baugh, R. J. et al., 1976, Biochemistry. 15, 836-841). […] The protease substrate used was Elastase Substrate V Fluorogenic, MeOSuc-AAPV-AMC (Calbiochem art. 324740; Ref. Castillo, M. J. et al., 1979, Anal. Biochem. 99, 53-64). The substrate was stored in dimethyl sulfoxide (DMSO) at −20° C. The assay additions were as follows: Test compounds and controls were added to black 96-well flat-bottom plates (Greiner 655076), 1.0 μL in 100% DMSO, followed by 30 μL HNE in assay buffer with 0.01% Triton (trade mark) X-100 detergent. The assay buffer constitution was: 100 mM Tris(hydroxymethyl)aminomethane (TRIS) (pH 7.5) and 500 mM NaCl. The enzyme and the compounds were incubated at room temperature for 15 minutes. Then 30 μl substrate in assay buffer was added. The assay was incubated for 30 minutes at room temperature. The concentrations of HNE enzyme and substrate during the incubation were 1.7 nM and 100 μM, respectively. The assay was then stopped by adding 60 μl stop solution (140 mM acetic acid, 200 mM sodium monochloroacetate, 60 mM sodium acetate, pH 4.3). Fluorescence was measured on a Wallac 1420 Victor 2 instrument at settings: Excitation 380 nm, Emission 460 nm. IC50 values were determined using Xlfit curve fitting using model 205.

Structures can show the parent of a compound that is named as a salt. Some results are limits rather than exact numbers.

What is called solubility is how much of the substance goes into solution per volume. The bioavailability is dose-corrected exposure relative to a reference, in per cent. One may read the Solubility as how much of the substance goes into solution per volume. Turning to `Cc1c(-c2ccnn2C)cc(C(=O)NCc2ccc(S(C)(=O)=O)cn2)c(=O)n1-c1cccc(C(F)(F)F)c1` [compound (I) tosylate Form A, 6-methyl-5-(1-methyl-1H-pyrazol-5-yl)-N-{[5-(methylsulfonyl)pyridin-2-yl]methyl}-2-oxo-1-[3-(trifluoromethyl)phenyl]-1,2-dihydropyridine-3-carboxamide 4-methylbenzenesulfonate], the solubility at 1 h in series [1] (aqueous buffer, 0.2 M Phosphate buffer pH 3.0, 1 h) was 493 ± 97 µM; in series [1] (aqueous buffer, 0.2 M Phosphate buffer pH 5.0, 1 h), 490 ± 42 µM; in series [1] (aqueous buffer, 0.2 M Phosphate buffer pH 6.5, 1 h), 416 ± 48 µM; in series [1] (aqueous buffer, 0.2 M Phosphate buffer pH 8, 1 h) it was 412 ± 29 µM; in series [1] (simulated gastric fluid, 0.1 M HCl pH 1.0, 1 h), 1530 ± 129 µM. The solubility at 3 h in series [1] (aqueous buffer, 0.2 M Phosphate buffer pH 3.0, 3 h) was 492 ± 115 µM; in series [1] (aqueous buffer, 0.2 M Phosphate buffer pH 5.0, 3 h), 460 ± 54 µM; in series [1] (aqueous buffer, 0.2 M Phosphate buffer pH 6.5, 3 h) it was 363 ± 86 µM; in series [1] (aqueous buffer, 0.2 M Phosphate buffer pH 8, 3 h), 240 ± 35 µM; in series [1] (simulated gastric fluid, 0.1 M HCl pH 1.0, 3 h), 1100 ± 145 µM. Besides, the solubility at 24 h in series [1] (aqueous buffer, 0.2 M Phosphate buffer pH 3.0, 24 h) is 11.8 ± 0.9 µM; in series [1] (aqueous buffer, 0.2 M Phosphate buffer pH 5.0, 24 h) it was 12.2 ± 0.6 µM; in series [1] (aqueous buffer, 0.2 M Phosphate buffer pH 6.5, 24 h) it was 10.1 ± 0.8 µM; in series [1] (aqueous buffer, 0.2 M Phosphate buffer pH 8, 24 h), 8.4 ± 0.7 µM; in series [1] (simulated gastric fluid, 0.1 M HCl pH 1.0, 24 h), 58.4 ± 1.2 µM. Further, the humidity uptake entry in series [2] is listed as “around 0.2%”. The “solid state chemical and physical stability” value in series [3] (25° C./desiccated, 25° C./60% RH, 40° C./75% RH, after 4, 8 and 12 weeks) was “no significant chemical or physical changes were observed”; in series [3] (stressed 60° C./75% RH condition, 4, 8 and 12 weeks), “some potential chemical degradation”. Also, in series [4] (gelatine capsule, dose equivalent to 1.0 mg/kg compound (I) free base), the bioavailability is approximately 38%. For the same molecule, in series [5], the “dissolved within 30 minutes” value was less than 65%. For the same molecule, the “Solubility” value in series [6] (4-methylbenzenesulfonate) came to 1200 µg/mL.
In general, IC50 refers to the concentration that inhibits the measured activity by half. Consider `Cc1c(-c2ccnn2C)cc(C(=O)NCc2ccc(S(C)(=O)=O)cn2)c(=O)n1-c1cccc(C(F)(F)F)c1` [compound (I), 6-methyl-5-(1-methyl-1H-pyrazol-5-yl)-N-{[5-(methylsulfonyl)pyridin-2-yl]methyl}-2-oxo-1-[3-(trifluoromethyl)phenyl]-1,2-dihydropyridine-3-carboxamide], for which the bioavailability in series [4] (aqueous suspension of 0.8 mg/kg crystalline free base (1.2% w/w Avicel, 0.1% w/w Polysorbate 80)) was approximately 12%. For the same molecule, in series [7], the IC50 came out at 12 nM. In addition, in series [6] (listed as Compound (I) free base), the “Solubility” value turned out to be 40 µg/mL.

(Values after patent US8232296B2, “Salt 628” (Astrazeneca AB, priority 2009, dated 2012).)
